What is called melting point is the temperature of the solid-liquid transition.

With `Cc1cc(F)ccc1Nc1nc(N(C)c2ccccc2)c2cc(OCCCN3CCOCC3)ccc2n1`, the melting point was in the range of 119 to 120 °C.
Next, `COCCOc1ccc(N=Nc2c(C#N)[nH]n(-c3ccccc3)c2=O)cc1S(=O)(=O)O`: 263 to 265 °C.
The figure for `CC(C)(O)Cn1c(CO)nc2c(N)nc3cc(-c4ccc(Cl)c(Cl)c4)cnc3c21` is 254 to 256 °C; for `CCC(C)(C)NCC(O)c1ccc(O)c(O)c1OC` (centres undefined) it is 172 to 174 °C; for `CC(C)(C)CC(=O)N[C@H]1CC[C@H](CCN2CCN(c3nccc4c3OCC4)CC2)CC1` it is 193 °C.
Next, `CC1(C)CCC(C)(C)c2cc(-c3ccccc3C=O)ccc21`: 85 to 87 °C; `CCCCCCCCCCC[C@H](C[C@H](O)[C@H](CCCCCC)C(=O)O)OCc1ccccc1`: 57 to 60 °C; `CN(C)C(=O)c1nn(-c2ccc(Cl)cc2)c(=O)c2c(N)scc12`: 242 to 244 °C.
For the compound `CCOC(=O)c1cc(=O)c2cc(O)ccc2s1`, the melting point fell in the range of 217 to 218 °C.
The figure for `Cc1cc(C=O)ccc1C(=O)Nc1ncc(Cl)cn1` is 169 to 172 °C; for `N#CN(c1ccccc1)c1nc(N(C#N)c2ccccc2)nc(N(c2ccccc2)c2ccccc2)n1` it is 280 to 284 °C.
Next, `CCCC1=C(C(=O)OCC)C(c2cccc3ccsc23)c2c[nH]nc2N1` (centres undefined): 166 °C; `O=C(O)C(CSc1ncccn1)CS(=O)(=O)c1ccc(-c2ccc(Cl)cc2)cc1` (centres undefined): 166 to 168 °C.
The figure for `COc1ccc(C(=O)CN2CCNC2=O)cc1OC` is 167 °C; for `Fc1cccc(-c2nc(-c3ccccn3)no2)c1F` it is 120 to 121 °C.
`OCCNCc1nnc2n1-c1ccc(Cl)cc1C(c1ccccc1)=NC2` had a melting point of 162 to 164 °C.
The figure for `COc1ccc2c(c1)C(C(=O)N(Cc1ccc3c(c1)OCO3)c1ccc(C(C)C)cc1)CCC2` (centres undefined) is 97 to 98 °C; for `Nc1ccc2c(c1-c1ccccc1)CCC2` it is 73 to 75 °C; for `CN1C(=O)CCC2CC(C3=NNC(=O)CC3CO)=CC=C21` (centres undefined) it is 201 to 204 °C.
As to `O=C(O)c1cc(S(=O)(=O)N2CCC(CO)CC2)ccc1Cl`, the melting point lay within 185 to 187 °C.
Turning to `COc1cccc(CC(=O)O)c1OCCCc1cn(-c2ccc(C)cn2)nc1C(C)C`, the melting point lay in the range of 132 to 133 °C.
Consider `Fc1ccc(C2(Cn3nc[nH]c3=S)OC2c2ccccc2Cl)cc1F` (centres undefined), for which the melting point was determined as 165 °C.
The figure for `COc1cccc(NC(=O)c2cc(-c3ccc(F)cc3F)ccc2O)c1` is 187 to 188 °C; for `CNC(=S)C1(c2cncc(Br)c2)CCCCC1=O` (centres undefined) it is 201 to 203 °C.
The figure for `CCCCCCCCCCCCCCCCCC(=O)n1cc(F)c(=O)[nH]c1=O` is 101 °C.
The figure for `CC1(C)CCCN(CC2(O)CCNCC2)C1` is 48 to 52 °C; for `COc1ccc(Cl)cc1-c1c(CCO)c(=O)[nH]c2ccc(C(F)(F)F)cc12` it is 216 to 217 °C.
Regarding `Cc1nc(C(=O)NN)c2n1-c1ccc(Cl)cc1C(c1ccccc1)NC2` (centres undefined), the melting point was in the range of 225 to 230 °C.
Next, `CCOC(=O)c1cnn(-c2ccccc2)c1Br`: 86 to 89 °C; `Cc1[nH]c(=S)n(Nc2ccccc2)c1C`: 217 to 219 °C; `CCCCCc1cc2c(cc1/C=C/c1ccc(C(=O)O)cc1)C(C)(C)CCC2(C)C`: 173 to 174 °C.
For the compound `CCNc1nc(-c2cccc([N+](=O)[O-])c2)c2cc(OC)c(OC)cc2n1`, the melting point lay within 164 to 166 °C.
Next, `CC(C)(C)OC(=O)c1ccccc1CCc1ccccc1N`: 58 to 59 °C.
Next, `Cc1cc(C)c(-c2ccc3c(=O)c(C(=O)O)cn(C4CC4)c3c2C)cn1`: 217 °C; `ON=Cc1ccc2c(c1)ncn2-c1cccc(CNCc2ccc(F)c(F)c2)c1`: 165 to 167 °C; `O=C(NC1=NCCCN1)Nc1c(Cl)cccc1Cl`: 179 to 180 °C.
On to `Cc1cccc(-c2nc3cccnn3c2-c2ccnc(NC(=O)c3cccc(F)c3)c2)c1`, for which the melting point fell in the range of 204 to 205 °C.
As to `Cc1nc(NC(=O)c2cccc(OC(F)(F)F)c2)sc1C(=O)NCc1ccccc1`, the melting point lay within 230 to 232 °C.
Next, `CCCCc1nn(-c2ccccc2C(F)(F)F)c(=O)n1Cc1ccc(-c2ccccc2S(=O)(=O)NC(=O)c2ccccc2Cl)cc1F`: 88 to 90 °C; `CCCCCCCCCCCCCCCCCCNC(=O)OCC(CNS(=O)(=O)CCCI)Oc1ccon1` (centres undefined): 69 to 71.5 °C; `Cc1cc(C)cc(SN2C(=O)CCC2=O)c1`: 131 to 134 °C.
For the compound `CC(C)(C)OC(=O)N1CCN(O)CC1`, the melting point lay in the range of 95 to 97 °C.
Next, `Cc1nc2cccc(N)c2s1`: 100 to 101 °C.
The figure for `Cc1cn(C(C)C(=O)N(C)C)nc1-c1ccccc1Cl` (centres undefined) is 98.5 to 100 °C.
The figure for `CC(Sc1nc(N)cc(Cl)n1)c1cc2ccccc2cn1` (centres undefined) is 179 to 180 °C; for `C/C(=C(\C#N)C(N)=S)N1CCCN(c2cccc(C)c2)CC1` it is 144 to 148 °C.
In turn, `COc1nc(C)nc(NC(=O)NS(=O)(=O)c2ccccc2C(=S)C(C)C)n1` displayed a melting point of 155 to 158 °C.
Compound `CNC(=O)N1N=C(c2ccc([N+](=O)[O-])cc2)c2cc(Br)ccc2CC1C` (centres undefined) came in with a melting point of 197 to 200 °C.
Next, `CCn1cc(C(=O)O)c(=O)c2cc(F)c(N3CCC4CCC(C3)N4)cc21` (centres undefined): 147 to 150 °C.
The figure for `COc1ccc(-c2nc(Sc3ccc(F)cc3)[nH]c2-c2ccc(OC)cc2)cc1` is 106 °C; for `CCOC1=Nc2c(C)cccc2Nc2ncccc21` it is 135 to 136 °C; for `CCOC(=O)N1CCN(c2nc(N(C(C)=O)C3CC3)ccc2N)CC1` it is 149 to 150 °C.
Next, `Cc1oc(-c2ccccc2)nc1CCc1ccc(CCCC2SC(=O)NC2=O)cc1` (centres undefined): 99 to 100 °C.
`O=C1OC(P(=O)(O)c2ccccc2)c2ccccc21` (centres undefined) yielded a melting point of 230 to 233 °C.
The figure for `CCOC(=O)C(C#N)=Cc1ccc(OCCc2nc(-c3ccccc3Cl)oc2C)cc1` is 120 to 121 °C; for `CC1(C)CCc2c(N3CCOCC3)nc3sc4c(NCc5ccco5)ncnc4c3c2C1` it is 210 to 211 °C; for `Cc1ccc(F)c(C(C)Oc2ccc3nc(NC(=O)NCCN4CCOCC4)sc3c2)c1F` (centres undefined) it is 92 to 95 °C.
Next, `CSc1ccc(CCN2CCN(C(=O)c3ccc(N(CCOC(C)C)C(=O)CCl)cc3)CC2)cc1`: 115 to 116 °C; `CCCCCCC(=N)NC(=S)Nc1ccc(OC)cc1`: 70 to 72 °C; `ON=C1CSc2ccccc2CN1`: 208 to 210 °C.
The figure for `CC1(C)C(C)(C)C1(Cl)c1ccc2c(c1)OCO2` is 110 to 112 °C; for `COc1ccccc1OCC(O)CN1CCCC(Cn2c(=O)[nH]c3ccc(Cl)cc32)C1` (centres undefined) it is 167 °C.
`O=C(c1ccc2nonc2c1)N1C2CCC1COC2`: the melting point was 139 to 140 °C.
The figure for `Cc1cc(N2NCCNC2=O)cc(Cl)c1C(O)c1ccc(Cl)cc1` (centres undefined) is 146 to 147 °C.
